Data: PMC6273595, “Study of the Activity and Possible Mechanism of Action of a Reversible Inhibitor of Recombinant Human KAT-2: A Promising Lead in Neurodegenerative and Cognitive Disorders” (Molecules, 2016)
Where two headings read alike, the source gives them in different places. One block for each molecule: values may come before it.

How the values were obtained:
[1] = target: T1, KAT-2 (kynurenine aminotransferase-2) (Homo sapiens, UniProt Q8N5Z0); assay: HPLC assay of KYN to KYNA conversion by recombinant human KAT-2, % inhibition at […]; format: biochemical
T1 construct: gene AADAT; recombinant KAT-2

[2] = target: T1, KAT-2 (kynurenine aminotransferase-2); assay: HPLC assay of KYN to KYNA conversion by recombinant human KAT-2; format: biochemical

T1 sequence (Q8N5Z0 30-425): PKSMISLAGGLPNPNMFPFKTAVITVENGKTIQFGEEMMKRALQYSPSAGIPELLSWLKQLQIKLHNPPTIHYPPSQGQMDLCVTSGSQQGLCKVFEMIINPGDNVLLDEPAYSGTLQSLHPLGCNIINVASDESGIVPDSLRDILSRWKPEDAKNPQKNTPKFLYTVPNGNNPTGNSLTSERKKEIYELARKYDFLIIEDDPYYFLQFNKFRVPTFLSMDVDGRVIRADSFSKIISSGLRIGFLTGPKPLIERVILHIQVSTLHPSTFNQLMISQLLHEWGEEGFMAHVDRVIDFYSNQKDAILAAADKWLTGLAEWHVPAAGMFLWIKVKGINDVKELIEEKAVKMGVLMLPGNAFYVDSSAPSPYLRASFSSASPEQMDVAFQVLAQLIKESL

inhibition at 200 µM [1]: 20%
Compound: CCS(=O)(=O)c1ccc(C(=O)C[C@H](N)C(=O)O)cc1 [(S)-ESBA, (S)-4-(Ethylsulfonyl)benzoylalanine]

IC50 ([2]; read-out: IC50): 15 to 20 µM
Compound: C[C@H]1COc2c(N3CCN(N)CC3)c(F)cc3c(=O)c(C(=O)O)cn1c23 [BFF-122]

Compound: N[C@H]1Cc2ccccc2N(O)C1=O [PF-04859989]
IC50 [2]: 1 to 3 µM
